From patent publication US10913736B2 (UNIVERSITY OF WASHINGTON, priority 2014, dated 2021)
Several values for one entry are separate records, joined by “and”; a condition that tells them apart may be missing. Equal entries are not always repeated. Where two headings read alike, the source gives them in different places.

Tests used:
MetRS (T. brucei) = MetRS (T. brucei) (Trypanosoma brucei brucei, UniProt Q38C91); test: MetRS (T. brucei) ATP depletion assay using Kinase-Glo; assay type: biochemical
T. brucei = test: Growth inhibition assay of T. brucei cell cultures (Alamar Blue, 48 h); assay type: cell-based
MetRS (S. aureus) = MetRS (S. aureus) (Staphylococcus aureus, UniProt Q5HII6); test: biochemical; conditions: ATP depletion, Kinase-Glo; read-out: H) MetRS (S. aureus) ATP depletion assay using Kinase-Glo with modified cpd dilution method, IC50
T. cruzi = T. cruzi growth inhibition EC50; assay type: cell-based; conditions: Trypanosoma cruzi; read-out: C) T. cruzi EC50
[1] = Trypanosoma brucei; read-out: B) T. brucei EC50

Chain of MetRS (T. brucei) (Q38C91 entry or part of it): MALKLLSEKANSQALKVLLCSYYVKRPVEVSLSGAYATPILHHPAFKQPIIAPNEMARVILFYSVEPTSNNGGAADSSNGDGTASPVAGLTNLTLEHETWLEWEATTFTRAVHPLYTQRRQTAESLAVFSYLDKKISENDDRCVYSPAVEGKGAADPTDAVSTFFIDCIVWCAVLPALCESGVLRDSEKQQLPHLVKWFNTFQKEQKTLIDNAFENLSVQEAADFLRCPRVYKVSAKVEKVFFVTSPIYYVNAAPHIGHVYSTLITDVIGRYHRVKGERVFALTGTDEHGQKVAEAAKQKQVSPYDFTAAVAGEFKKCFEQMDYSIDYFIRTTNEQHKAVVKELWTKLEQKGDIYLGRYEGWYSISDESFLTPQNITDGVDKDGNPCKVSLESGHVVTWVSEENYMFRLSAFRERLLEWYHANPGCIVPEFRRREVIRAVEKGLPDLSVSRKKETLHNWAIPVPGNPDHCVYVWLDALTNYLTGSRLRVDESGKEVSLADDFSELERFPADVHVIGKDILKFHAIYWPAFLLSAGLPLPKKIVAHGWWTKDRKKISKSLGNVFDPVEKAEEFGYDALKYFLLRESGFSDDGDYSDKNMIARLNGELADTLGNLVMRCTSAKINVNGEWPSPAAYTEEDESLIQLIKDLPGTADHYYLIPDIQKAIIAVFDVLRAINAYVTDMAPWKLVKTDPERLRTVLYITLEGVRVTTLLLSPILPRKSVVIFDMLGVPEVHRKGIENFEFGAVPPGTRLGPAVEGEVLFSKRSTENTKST
Chain of MetRS (S. aureus) (Q5HII6 whole entry): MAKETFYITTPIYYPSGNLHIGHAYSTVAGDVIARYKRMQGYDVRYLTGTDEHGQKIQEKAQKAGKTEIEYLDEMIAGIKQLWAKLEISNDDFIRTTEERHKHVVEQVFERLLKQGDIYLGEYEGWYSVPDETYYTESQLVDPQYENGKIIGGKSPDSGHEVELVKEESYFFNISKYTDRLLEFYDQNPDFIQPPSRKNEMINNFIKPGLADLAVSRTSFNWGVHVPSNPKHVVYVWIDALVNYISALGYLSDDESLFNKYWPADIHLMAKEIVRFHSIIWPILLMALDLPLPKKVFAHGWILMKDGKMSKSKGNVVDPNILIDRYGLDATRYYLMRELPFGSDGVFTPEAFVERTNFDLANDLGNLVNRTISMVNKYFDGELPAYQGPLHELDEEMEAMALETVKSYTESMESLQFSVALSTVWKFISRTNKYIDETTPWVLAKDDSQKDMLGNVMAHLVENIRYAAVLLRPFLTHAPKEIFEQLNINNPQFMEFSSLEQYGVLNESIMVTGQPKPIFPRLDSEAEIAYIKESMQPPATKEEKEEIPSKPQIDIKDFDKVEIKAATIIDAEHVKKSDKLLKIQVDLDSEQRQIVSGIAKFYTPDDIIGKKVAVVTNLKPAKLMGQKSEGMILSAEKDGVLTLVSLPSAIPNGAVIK

Work on `CN(CCN(Cc1cc(Cl)cc(Cl)c1)C(=O)CO)c1nc2ccc(Cl)nc2[nH]1` [Compound 1971, N-(3,5-dichlorobenzyl)-N-(2-(5-chloro-N-methyl-1H-imidazo[4,5-b]pyridin-2-ylamino)ethyl)-2-hydroxyacetamide] yielded an IC50 (MetRS (T. brucei)) of 13 nM, an EC50 (T. brucei; [1]) of 62.3 nM and an EC50 (T. brucei; read-out: B) T. brucei EC50) of 40.4 nM. It also gave an IC50 (MetRS (S. aureus)) of 85 nM.
In the case of `O=C(Cc1cc(Cl)cc(Cl)c1)NCc1nc2ccc(Cl)nc2[nH]1` [Compound 1875, N-({5-chloro-3H-imidazo[4,5-b]pyridin-2-yl}methyl)-2-(3,5-dichlorophenyl)acetamide], the IC50 (MetRS (T. brucei)) is reported as 38 nM, the EC50 (T. brucei; [1]) is reported as 1900 nM and the EC50 (T. cruzi) is reported as 13100 nM.
`Clc1cc(Cl)cc(CNCCc2nc3ncc(Cl)cc3[nH]2)c1` [Compound 1844, (2-{6-chloro-3H-imidazo[4,5-b]pyridin-2-yl}ethyl)[(3,5-dichlorophenyl)methyl]amine] showed an IC50 (MetRS (T. brucei)) of 60 nM, an EC50 (T. brucei; [1]) of 598 nM and an EC50 (T. cruzi) of 5420 nM.
`CCOc1c(Cl)cc(Cl)cc1CNCCN(C)c1nc2nc(Cl)ccc2[nH]1` [Compound 1925, 5-chloro-N-(2-{[(3,5-dichloro-2-ethoxyphenyl)methyl]amino}ethyl)-N-methyl-3H-imidazo[4,5-b]pyridin-2-amine] was tested, and the IC50 (MetRS (T. brucei)) was 15 nM, the EC50 (T. brucei; [1]) was 314 nM and the IC50 (MetRS (S. aureus)) was 266 nM.
Work on `Clc1cc(Cl)cc(NC[C@@H]2CCCN(c3nc4nc(Cl)ccc4[nH]3)C2)c1` [Compound 1923, (S)-3,5-dichloro-N-((1-(5-chloro-1H-imidazo[4,5-b]pyridin-2-yl)piperidin-3-yl)methyl)aniline] yielded an IC50 (MetRS (T. brucei)) of 32 nM, an EC50 (T. brucei; [1]) of 566 nM and an IC50 (MetRS (S. aureus)) of 504 nM.
In the case of `Clc1cc(Cl)cc(CNc2cccc(-c3nc4ccc(Cl)nc4[nH]3)c2)c1` [Compound 1966, 3-{5-chloro-3H-imidazo[4,5-b]pyridin-2-yl}-N-[(3,5-dichlorophenyl)methyl]amine], the IC50 (MetRS (T. brucei)) is reported as 72 nM, the EC50 (T. brucei; [1]) is reported as 1030 nM and the IC50 (MetRS (S. aureus)) is reported as 5730 nM.
For `CC(=O)N(CCNc1nc2nc(F)ccc2[nH]1)Cc1cc(Cl)cc(Cl)c1` [Compound 1897, N-(3,5-dichlorobenzyl)-N-(2-((5-fluoro-1H-imidazo[4,5-b]pyridin-2-yl)amino)ethyl) acetamide], the IC50 (MetRS (T. brucei)) was 16 nM, the EC50 (T. brucei; [1]) was 653 nM and the IC50 (MetRS (S. aureus)) was 606 nM.
Work on `Fc1ccc2nc(NCCCNc3cc(Cl)cc(Cl)c3)[nH]c2n1` [Compound 1954, 3,5-dichloro-N-[3-({5-fluoro-3H-imidazo[4,5-b]pyridin-2-yl}amino)propyl]aniline] yielded an IC50 (MetRS (T. brucei)) of 61 nM, an EC50 (T. brucei; [1]) of 369 nM and an EC50 (T. brucei; read-out: B) T. brucei EC50) of 565 nM. The IC50 (MetRS (S. aureus)) was 928 nM.
For `O=C1N[C@@H](Cc2ccc(Cl)cc2Cl)C(=O)N1Cc1nc2ccccc2[nH]1` [Compound 1754, (S)-3-((1H-benzo[d]imidazol-2-yl)methyl)-5-(2,4-dichlorobenzyl)imidazolidine-2,4-dione], the IC50 (MetRS (T. brucei)) was over 10000 nM, the EC50 (T. brucei; [1]) was 5890 nM and the EC50 (T. cruzi) was over 5000 nM.
Compound `NN(C(=O)/C=C/Oc1ccc(Cl)cc1Cl)c1nc2ccccc2[nH]1` [Compound 1766, (2E)-N-(1H-1,3-benzodiazol-2-yl)-3-(2,4-dichlorophenoxy)prop-2-enehydrazide] has an IC50 (MetRS (T. brucei)) of 297 nM, an EC50 (T. brucei; [1]) of 3530 nM and an EC50 (T. cruzi) of over 5000 nM.
Compound `Clc1cc(Cl)cc(CNC2CCCC(c3nc4nc(Cl)ccc4[nH]3)C2)c1` (stereo not shown) [Compound 1788, 3-(5-chloro-1H-imidazo[4,5-b]pyridin-2-yl)-N-(3,5-dichlorobenzyl)cyclohexanamine] has an IC50 (MetRS (T. brucei)) of 124 nM, an EC50 (T. brucei; [1]) of 359 nM and an EC50 (T. cruzi) of 4170 nM.
Compound `Clc1cc(Cl)cc(CNCCNc2nc3ccc(Cl)cc3[nH]2)c1` [Compound 1829, {2-[(6-chloro-1H-1,3-benzodiazol-2-yl)amino]ethyl}[(3,5-dichlorophenyl)methyl]amine] has an IC50 (MetRS (T. brucei)) of 85 nM, an EC50 (T. brucei; [1]) of 539 nM and an EC50 (T. cruzi) of 3040 nM.
`Cc1ccc2[nH]c(NCCCNCc3cc(Cl)cc(Cl)c3)nc2n1` [Compound 1599, N1-(3,5-dichlorobenzyl)-N3-(5-methyl-1H-imidazo[4,5-b]pyridin-2-yl)propane-1,3-diamine] was tested, and the IC50 (MetRS (T. brucei)) was 45 nM and 59 nM, the EC50 (T. brucei; [1]) was 662 nM and the EC50 (T. cruzi) was 2910 nM.
`CC(=O)N(CCCNc1nc2ccc(F)nc2[nH]1)Cc1cc(Cl)cc(Cl)c1` [Compound 1959, N-(3,5-dichlorobenzyl)-N-(3-(5-fluoro-3H-imidazo[4,5-b]pyridin-2-ylamino)propyl)acetamide] showed an IC50 (MetRS (T. brucei)) of 16 nM, an EC50 (T. brucei; [1]) of 39.3 nM and an EC50 (T. brucei; read-out: B) T. brucei EC50) of 51.1 nM. It also gave an IC50 (MetRS (S. aureus)) of 12 nM.
`CC(=O)N(Cc1cc(Cl)cc(Cl)c1)C1CCCC(c2nc3nc(F)ccc3[nH]2)C1` (stereo not shown) [Compound 1801, N-(3,5-dichlorobenzyl)-N-(3-(5-fluoro-1H-imidazo[4,5-b]pyridin-2-yl)cyclohexyl)acetamide] was tested, and the IC50 (MetRS (T. brucei)) was 533 nM and 569 nM and the EC50 (T. cruzi) was 252 nM.
Compound `OC(CNCc1cc(Cl)cc(Cl)c1)CNc1nc2cccnc2[nH]1` (stereo not shown) [Compound 1634, 1-((1H-imidazo[4,5-b]pyridin-2-yl)amino)-3-((3,5-dichlorobenzyl)amino)propan-2-ol] has an IC50 (MetRS (T. brucei)) of 133 nM, an EC50 (T. brucei; [1]) of 121 nM and an EC50 (T. cruzi) of 9760 nM.
With `Clc1ccc(CNC2CCCC(c3nc4nc(Cl)ccc4[nH]3)C2)c(Cl)c1` (stereo not shown) [Compound 1809, 3-(5-chloro-1H-imidazo[4,5-b]pyridin-2-yl)-N-(2,4-dichlorobenzyl) cyclohexanamine] the IC50 (MetRS (T. brucei)) was 43 nM, the EC50 (T. brucei; [1]) was 821 nM and the EC50 (T. cruzi) was 3460 nM.
With `CC(=O)N(Cc1cc(Cl)cc(Cl)c1)C1CCCC(c2nc3nc(Cl)ccc3[nH]2)C1` (stereo not shown) [Compound 1789, N-(3-(5-chloro-1H-imidazo[4,5-b]pyridin-2-yl)cyclohexyl)-N-(3,5-dichlorobenzyl)acetamide] the IC50 (MetRS (T. brucei)) was 89 nM, the EC50 (T. brucei; [1]) was 2810 nM and the EC50 (T. cruzi) was 4990 nM.
`Oc1c(Cl)cc(Cl)cc1CN[C@H]1CCCN(c2nc3nc(Cl)ccc3[nH]2)C1` [Compound 1921] gave an IC50 (MetRS (T. brucei)) of 25 nM, an EC50 (T. brucei; [1]) of 241 nM and an IC50 (MetRS (S. aureus)) of 1570 nM.
Work on `CC(=O)N(CCCc1nc2ccc(Cl)nc2[nH]1)Cc1cc(Cl)cc(Cl)c1` [Compound 1895, N-(3-(5-chloro-1H-imidazo[4,5-b]pyridin-2-yl)propyl)-N-(3,5-dichlorobenzyl)acetamide] yielded an IC50 (MetRS (T. brucei)) of 17 nM, an EC50 (T. brucei; [1]) of 569 nM and an IC50 (MetRS (S. aureus)) of 445 nM.
For `Clc1cc(Cl)c2c(c1)C(N[C@H]1CCCN(c3nc4nc(Cl)ccc4[nH]3)C1)CCN2` (stereo partly drawn) [Compound 1899, 6,8-dichloro-N—((S)-1-(5-chloro-1H-imidazo[4,5-b]pyridin-2-yl)piperidin-3-yl)-1,2,3,4-tetrahydroquinolin-4-amine], the IC50 (MetRS (T. brucei)) was 89 nM, the EC50 (T. cruzi) was 260 nM and the IC50 (MetRS (S. aureus)) was 323 nM.
For `N#Cc1cc(Cl)cc(CN[C@H]2CCCN(c3nc4nc(Cl)ccc4[nH]3)C2)c1` [Compound 1992, (S)-3-chloro-5-(((1-(5-chloro-1H-imidazo[4,5-b]pyridin-2-yl)piperidin-3-yl)amino)methyl)benzonitrile], the IC50 (MetRS (T. brucei)) was 14 nM, the EC50 (T. brucei; [1]) was 111 nM and the EC50 (T. cruzi) was 2130 nM.
For `CN(CCN(Cc1cc(Cl)cc(Cl)c1)C(=O)CCN)c1nc2nc(Cl)ccc2[nH]1` [Compound 1958, 3-amino-N-[2-({5-chloro-1H-imidazo[4,5-b]pyridin-2-yl}(methyl)amino)ethyl]-N-[(3,5-dichlorophenyl)methyl]propanamide], the IC50 (MetRS (T. brucei)) was 13 nM, the EC50 (T. brucei; [1]) was 62.4 nM and the EC50 (T. brucei; read-out: B) T. brucei EC50) was 33.1 nM. For the same compound, the IC50 (MetRS (S. aureus)) was 381 nM.
In the case of `O=C(CCOc1ccc(Cl)cc1Cl)NCc1nc2ccc(F)nc2[nH]1` [Compound 1705, 3-(2,4-dichlorophenoxy)-N-({5-fluoro-3H-imidazo[4,5-b]pyridin-2-yl}methyl)propanamide], the IC50 (MetRS (T. brucei)) is reported as 100 nM, the EC50 (T. brucei; [1]) is reported as 8840 nM and the IC50 (MetRS (S. aureus)) is reported as 1690 nM.
For `O=C(NCc1nc2cccnc2[nH]1)OCCc1ccc(Cl)cc1Cl` [Compound 1706, 2-(2,4-dichlorophenyl)ethyl N-{3H-imidazo[4,5-b]pyridin-2-ylmethyl}carbamate], the IC50 (MetRS (T. brucei)) was 38 nM, the EC50 (T. brucei; [1]) was 2760 nM and the IC50 (MetRS (S. aureus)) was 83 nM.
With `Clc1cc(Cl)cc(NCCCNc2nc3ccc(Cl)nc3[nH]2)c1` [Compound 1967] the IC50 (MetRS (T. brucei)) was 88 nM, the EC50 (T. brucei; [1]) was 2300 nM and the IC50 (MetRS (S. aureus)) was over 1000 nM.
`COC(=O)N(CCN(C)c1nc2nc(Cl)ccc2[nH]1)Cc1cc(Cl)cc(Cl)c1` [Compound 1963, methyl 3,5-dichlorobenzyl2-(5-chloro-N-methyl-1H-imidazo[4,5-b]pyridin-2-ylamino)ethylcarbamate] gave an IC50 (MetRS (T. brucei)) of 21 nM, an EC50 (T. brucei; [1]) of 97.4 nM and an IC50 (MetRS (S. aureus)) of 348 nM.
With `CC(=O)N(CCCc1nc2nc(F)ccc2[nH]1)Cc1cc(Cl)cc(Cl)c1` [Compound 1835, N-(3,5-dichlorobenzyl)-N-(3-(5-fluoro-1H-imidazo[4,5-b]pyridin-2-yl)propyl)acetamide] the IC50 (MetRS (T. brucei)) was 23 nM, the EC50 (T. brucei; [1]) was 873 nM and the EC50 (T. cruzi) was over 20000 nM.
`N#Cc1c(NCCCNCc2cc(Cl)cc(Cl)c2)[nH]c2cccnc12` [Compound 1627, 2-(3-(3,5-dichlorobenzylamino)propylamino)-1H-pyrrolo[3,2-b]pyridine-3-carbonitrile] showed an IC50 (MetRS (T. brucei)) of 61 nM, an EC50 (T. brucei; [1]) of over 9.08 nM and an EC50 (T. brucei; read-out: B) T. brucei EC50) of 4.6 nM. For the same compound, the EC50 (T. cruzi) was 623 nM.
`O=c1[nH]c(Cc2ccc(Cl)cc2Cl)cn1Cc1nc2ccc(F)nc2[nH]1` [Compound 1962, 5-(2,4-dichlorobenzyl)-3-((5-fluoro-3H-imidazo[4,5-b]pyridin-2-yl)methyl)-1H-imidazol-2(3H)-one] showed an IC50 (MetRS (T. brucei)) of 19 nM, an EC50 (T. brucei; [1]) of 12.9 nM and an IC50 (MetRS (S. aureus)) of 17 nM.
`O=C(CNc1nc2ccc(Cl)nc2[nH]1)NCc1cc(Cl)cc(Cl)c1` [Compound 1970, 2-((5-chloro-3H-imidazo[4,5-b]pyridin-2-yl)amino)-N-(3,5-dichlorobenzyl)acetamide] was tested, and the IC50 (MetRS (T. brucei)) was 69 nM, the EC50 (T. brucei; [1]) was 2980 nM and the IC50 (MetRS (S. aureus)) was 1080 nM.
Work on `Clc1cc(Cl)cc(CNCCCc2nc3ccc(Cl)nc3[nH]2)c1` [Compound 1881, (3-{5-chloro-3H-imidazo[4,5-b]pyridin-2-yl}propyl)[(3,5-dichlorophenyl)methyl]amine] yielded an IC50 (MetRS (T. brucei)) of 35 nM, an EC50 (T. brucei; [1]) of 307 nM and an EC50 (T. cruzi) of 5870 nM.
